According to patent US9593146B2, “CD44v6-derived peptides for treating metastasizing cancer” (AMCURE GMBH, priority 2012, dated 2017):

System: VEGFR-2
Experiment: VEGF-A165 induced activation of VEGFR-2 and Erk in endothelial cells
Format: cell-based, human
Settings: HUVEC, HAOEC and HCMEC
Procedure: FIG. 13: Activation of VEGFR-2 and signal transduction induced by VEGF-A165 depends on CD44v6. Different ECs (HUVEC, HAOEC and HCMEC) were serum starved and incubated with several reagents (αCD44v6, v6 14mer and the controls IgG and ctrl pep). The cells were then induced with VEGF-A165 and lysed. The cell lysates were loaded on SDS-PAGE and subjected to Western blot analysis. Activation of the receptor tyrosine kinase VEGFR-2 and of its downstream target Erk was detected by means of antibodies that detect phosphorylated forms of VEGFR-2 and Erk. The loading control was performed with antibodies recognising total VEGFR-2 and Erk levels. The numbers indicate the fold induction as calculated with the computer programme ImageJ.
In order investigate if an isoform of CD44 is necessary for VEGFR-2 activation, the three tools inhibiting CD44v6 activity were used in an experiment where VEGFR-2 was activated by VEGF-A165. As expected all ECs responded to VEGF-A165 treatment with VEGFR-2 phosphorylation and signal transduction to Erk. […] Thus CD44v6 is also necessary for a functional VEGF-A165/VEGFR-2 system in these cells.

KEQWFGNRWHEGYR [human 14mer, human CD44v6 14mer peptide]
VEGFR-2 activation and downstream signaling to Erk induced by VEGF-A165: blocked VEGFR-2 activation and downstream signaling to Erk
